Structures are written as SMILES.

In this assay the target is FimH-CRD (Escherichia coli, UniProt P08191). In words: Competitive binding assay (fluorescence polarization, Alexa647 mannoside probe). Here is the method: The following competitive binding assay is performed: Round bottom, low volume 384-well microtiter plates are filled with 20 μl/well of a binding solution of FimH-CRD in 50 mM Tris, pH 7.0, 100 mM NaCl, 1 mM EDTA, 5 mM beta mercaptoethanol, 0.05% BSA, 5 nM of the Alexa647 mannoside probe and 60 nM of the FimH-CRD. Control wells using the same conditions but no FimH-CRD added are also prepared (protein-free). Compounds are serially diluted (12-point dose) in DMSO from 75 μM down to 0.4 nM. Compounds or DMSO are then added to each well (0.5 μl) to reach the final concentration of each drug (2.5% final DMSO concentration), in duplicate. Plates are then incubated for a minimum of five hours at room temperature in the dark. Plates are then read using the SpectaMax Paradigm Multi-Mode plate reader and the appropriate fluorescent polarization Detection cartridge (Alexa-647).
Alexa 647 mannoside probe is prepared using the similar procedure reported for FAM mannoside (Han, Z. et. al., 2010, J. Med. Chem., 53, 4779) and is described in the scheme below.
To a blue colored stirred solution of (2S,3S,4S,5S,6R)-2-(4-aminobutoxy)-6-(hydroxymethyl)tetrahydropyran-3,4,5-triol (2.21 mg, 0.009 mmol) and the (2E)-2-[(2E,4E)-5-[3,3-dimethyl-5-sulfonato-1-(3-sulfonatopropyl)indol-1-ium-2-yl]penta-2,4-dienylidene]-3-[6-(2,5-dioxopyrrolidin-1-yl)oxy-6-oxo-hexyl]-3-methyl-1-(3-sulfonatopropyl)indoline-5-sulfonate (Potassium Ion (3)) (4.9 mg, 0.0044 mmol) in DMF (44 μL) is added Et3N (5.4 mg, 7.0 μL, 0.053 mmol) at rt. The solution is stirred at room temperature over night, concentrated, dissolved in water and purified on 12 g C-18 silica gel cartridge on Isolera system using acetonitrile in water (0 to 40%, 10 CV) and followed by lyophilization to afford Alexa 647 mannoside probe (3.3 mg, 34%) as deep blue solid.
The Kd values of the compounds tested in duplicates are calculated with prism software (GraphPad Software, Inc, La Jolla, USA) with Alexa-647 probe and FimH-CRD.

FimH-CRD, sequence (P08191 22-177): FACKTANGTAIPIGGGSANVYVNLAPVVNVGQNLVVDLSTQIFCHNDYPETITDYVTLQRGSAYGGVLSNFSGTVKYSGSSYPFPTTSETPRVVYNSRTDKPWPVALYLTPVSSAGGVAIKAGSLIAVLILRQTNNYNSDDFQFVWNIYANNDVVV

In turn, `CNC(=O)c1cccc(-c2ccc(O[C@H]3O[C@H](CO)[C@@H](O)[C@H](C(O)[C@H]4O[C@H](CO)[C@@H](O)[C@H](O)[C@@H]4O)[C@@H]3O)cc2)c1` (stereo partly drawn) [Compound 1, 3-[4-[(2R,3S,4R,5S,6R)-3,5-Dihydroxy-6-(hydroxymethyl)-4-[hydroxy-[(2R,3S,4S,5S,6R)-3,4,5-trihydroxy-6-(hydroxymethyl)tetrahydropyran-2-yl]methyl]tetrahydropyran-2-yl]oxyphenyl]-N-methyl-benzamide] returned a Kd of 29 nM. In other words, the double-digit nanomolar range. For `CO[C@H]1O[C@H](CO)[C@@H](O)[C@H](C(O)[C@H]2O[C@H](CO)[C@@H](O)[C@H](O)[C@@H]2O)[C@@H]1O` (stereo partly drawn) [Compound 2, (2R,3S,4S,5S,6R)-2-[[(2R,3S,4R,5S,6S)-3,5-Dihydroxy-2-(hydroxymethyl)-6-methoxy-tetrahydropyran-4-yl]-hydroxy-methyl]-6-(hydroxymethyl)tetrahydropyran-3,4,5-triol], binding was put at a Kd of 124 nM. This Kd is about 4.3-fold higher than that of the compound before. With `CNC(=O)c1cccc(-c2ccc(O[C@H]3O[C@H](CO)[C@@H](O)[C@H](C[C@H]4O[C@H](CO)[C@@H](O)[C@H](O)[C@@H]4O)[C@@H]3O)cc2)c1` [Compound 3, 3-[4-[(2R,3S,4S,5S,6R)-3,5-Dihydroxy-6-(hydroxymethyl)-4-[[(2R,3S,4R,5S,6R)-3,4,5-trihydroxy-6-(hydroxymethyl)tetrahydropyran-2-yl]methyl]tetrahydropyran-2-yl]oxyphenyl]-N-methyl-benzamide] the figure was 66 nM. For the compound `CNC(=O)c1cccc(-c2ccc(O[C@H]3O[C@H](CO)[C@@H](O)[C@H](C[C@H]4O[C@H](CO)[C@@H](O)[C@H](O)[C@@H]4O)[C@@H]3O)c(C)c2)c1` [Compound 4, 3-[4-[(2R,3S,4S,5S,6R)-3,5-Dihydroxy-6-(hydroxymethyl)-4-[[(2R,3S,4R,5S,6R)-3,4,5-trihydroxy-6-(hydroxymethyl)tetrahydropyran-2-yl]methyl]tetrahydropyran-2-yl]oxy-3-methyl-phenyl]-N-methyl-benzamide], the Kd was determined as 51 nM. The Kd values of the last two compounds are within 1.5-fold of each other. With `CNC(=O)c1cccc(O[C@H]2O[C@H](CO)[C@@H](O)[C@H](C[C@H]3O[C@H](CO)[C@@H](O)[C@H](O)[C@@H]3O)[C@@H]2O)c1` [Compound 5, 3-[(2R,3S,4S,5S,6R)-3,5-Dihydroxy-6-(hydroxymethyl)-4-[[(2R,3S,4R,5S,6R)-3,4,5-trihydroxy-6-(hydroxymethyl)tetrahydropyran-2-yl]methyl]tetrahydropyran-2-yl]oxy-N-methyl-benzamide] the figure was 72 nM; with `OC[C@H]1O[C@H](C[C@@H]2[C@H](O)[C@@H](Oc3cccc(O)c3)O[C@H](CO)[C@H]2O)[C@@H](O)[C@@H](O)[C@@H]1O` [Compound 6, (2R,3S,4R,5S,6R)-2-[[(2R,3S,4S,5S,6R)-3,5-Dihydroxy-2-(hydroxymethyl)-6-(3-hydroxyphenoxy)tetrahydropyran-4-yl]methyl]-6-(hydroxymethyl)tetrahydropyran-3,4,5-triol], 301 nM; with `Cc1nnc(-c2ccc(-c3ccc(O[C@H]4O[C@H](CO)[C@@H](O)[C@H](C[C@H]5O[C@H](CO)[C@@H](O)[C@H](O)[C@@H]5O)[C@@H]4O)cc3)cc2)o1` [Compound 7, (2R,3S,4R,5S,6R)-2-[[(2R,3S,4S,5S,6R)-3,5-Dihydroxy-2-(hydroxymethyl)-6-[4-[4-(5-methyl-1,3,4-oxadiazol-2-yl)phenyl]phenoxy]tetrahydropyran-4-yl]methyl]-6-(hydroxymethyl)tetrahydropyran-3,4,5-triol], 94 nM.

`CNC(=O)c1cc(C(=O)NC)cc(-c2ccc(O[C@H]3O[C@H](CO)[C@@H](O)[C@H](C[C@H]4O[C@H](CO)[C@@H](O)[C@H](O)[C@@H]4O)[C@@H]3O)cc2)c1` [Compound 8, 5-[4-[(2R,3S,4S,5S,6R)-3,5-Dihydroxy-6-(hydroxymethyl)-4-[[(2R,3S,4R,5S,6R)-3,4,5-trihydroxy-6-(hydroxymethyl)tetrahydropyran-2-yl]methyl]tetrahydropyran-2-yl]oxyphenyl]-N1,N3-dimethyl-benzene-1,3-dicarboxamide]: binding was put at a Kd of 64 nM.

For `CNC(=O)Cc1cccc(-c2ccc(O[C@H]3O[C@H](CO)[C@@H](O)[C@H](C[C@H]4O[C@H](CO)[C@@H](O)[C@H](O)[C@@H]4O)[C@@H]3O)cc2)c1` [Compound 9, 2-[3-[4-[(2R,3S,4S,5S,6R)-3,5-Dihydroxy-6-(hydroxymethyl)-4-[[(2R,3S,4R,5S,6R)-3,4,5-trihydroxy-6-(hydroxymethyl)tetrahydropyran-2-yl]methyl]tetrahydropyran-2-yl]oxyphenyl]phenyl]-N-methyl-acetamide], the dissociation constant (Kd) stood at 79 nM.

Take `CNC(=O)Cc1cccc(-c2cccc(O[C@H]3O[C@H](CO)[C@@H](O)[C@H](C[C@H]4O[C@H](CO)[C@@H](O)[C@H](O)[C@@H]4O)[C@@H]3O)c2)c1` [Compound 10, 2-[3-[3-[(2R,3S,4S,5S,6R)-3,5-Dihydroxy-6-(hydroxymethyl)-4-[[(2R,3S,4R,5S,6R)-3,4,5-trihydroxy-6-(hydroxymethyl)tetrahydropyran-2-yl]methyl]tetrahydropyran-2-yl]oxyphenyl]phenyl]-N-methyl-acetamide]: the affinity, expressed as Kd, was 50 nM. The value for `O=c1[nH]cc(-c2ccc(O[C@H]3O[C@H](CO)[C@@H](O)[C@H](C[C@H]4O[C@H](CO)[C@@H](O)[C@H](O)[C@@H]4O)[C@@H]3O)cc2)c(=O)[nH]1` [Compound 11, 5-[4-[(2R,3S,4S,5S,6R)-3,5-Dihydroxy-6-(hydroxymethyl)-4-[[(2R,3S,4R,5S,6R)-3,4,5-trihydroxy-6-(hydroxymethyl)tetrahydropyran-2-yl]methyl]tetrahydropyran-2-yl]oxyphenyl]-1H-pyrimidine-2,4-dione] was 97 nM; that for `O=C1NCC(c2ccc(O[C@H]3O[C@H](CO)[C@@H](O)[C@H](C[C@H]4O[C@H](CO)[C@@H](O)[C@H](O)[C@@H]4O)[C@@H]3O)cc2)=C(O)N1` [Compound 12, 5-[4-[(2R,3S,4S,5S,6R)-3,5-Dihydroxy-6-(hydroxymethyl)-4-[[(2R,3S,4R,5S,6R)-3,4,5-trihydroxy-6-(hydroxymethyl)tetrahydropyran-2-yl]methyl]tetrahydropyran-2-yl]oxyphenyl]-6-hydroxy-3,4-dihydro-1H-pyrimidin-2-one] was 111 nM; that for `CNC(=O)c1cc(C(=O)NC)cc(-c2cccc(O[C@H]3O[C@H](CO)[C@@H](O)[C@H](C[C@H]4O[C@H](CO)[C@@H](O)[C@H](O)[C@@H]4O)[C@@H]3O)c2)c1` [Compound 13, 5-[3-[(2R,3S,4S,5S,6R)-3,5-Dihydroxy-6-(hydroxymethyl)-4-[[(2R,3S,4R,5S,6R)-3,4,5-trihydroxy-6-(hydroxymethyl)tetrahydropyran-2-yl]methyl]tetrahydropyran-2-yl]oxyphenyl]-N1,N3-dimethyl-benzene-1,3-dicarboxamide] was 48 nM. Compound `CNC(=O)c1ccc(-c2ccc(C)c(O[C@H]3O[C@H](CO)[C@@H](O)[C@H](C[C@H]4O[C@H](CO)[C@@H](O)[C@H](O)[C@@H]4O)[C@@H]3O)c2)cc1` [Compound 15, 4-[3-[(2R,3S,4S,5S,6R)-3,5-Dihydroxy-6-(hydroxymethyl)-4-[[(2R,3S,4R,5S,6R)-3,4,5-trihydroxy-6-(hydroxymethyl)tetrahydropyran-2-yl]methyl]tetrahydropyran-2-yl]oxy-4-methyl-phenyl]-N-methyl-benzamide] returned a dissociation constant (Kd) of 19 nM.
